Measurements from PubChem BioAssay (NCI).
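Five compound concentrations were applied to cells in 96-well plates for 48 hours; endpoints were derived by simple linear interpolation of the resulting dose-response curve. GI50 is the concentration that inhibits growth by half. TGI denotes the concentration required for complete inhibition of growth.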

Columns and labels:
Assay in all cases: DTP human tumour cell line panel, 48 h
ACHN renal = system: ACHN renal
TK-10 renal = system: TK-10 renal
K-562 leukemia = system: K-562 leukemia
RPMI-8226 leukemia = system: RPMI-8226 leukemia
OVCAR-5 ovarian = system: OVCAR-5 ovarian
SN12C renal = system: SN12C renal
MDA-MB-435 = system: MDA-MB-435
UACC-257 melanoma = system: UACC-257 melanoma
SF-295 CNS = system: SF-295 CNS
NCI-H522 lung = system: NCI-H522 lung

Row | Structure (SMILES) | GI50 (ACHN renal) [µM] | TGI (ACHN renal) [µM] | GI50 (TK-10 renal) [µM] | TGI (TK-10 renal) [µM] | GI50 (K-562 leukemia) [µM] | TGI (K-562 leukemia) [µM] | GI50 (RPMI-8226 leukemia) [µM] | TGI (RPMI-8226 leukemia) [µM] | GI50 (OVCAR-5 ovarian) [µM] | TGI (OVCAR-5 ovarian) [µM] | GI50 (SN12C renal) [µM] | TGI (SN12C renal) [µM] | GI50 (MDA-MB-435) [µM] | TGI (MDA-MB-435) [µM] | GI50 (UACC-257 melanoma) [µM] | TGI (UACC-257 melanoma) [µM] | GI50 (SF-295 CNS) [µM] | TGI (SF-295 CNS) [µM] | TGI (NCI-H522 lung) [µM] | GI50 (NCI-H522 lung) [µM]
1 | O=C(Nc1ccc2c(c1)OCO2)C(=O)c1c[nH]c2cc(F)ccc12 | 0.547 | 20.4 | 7.04 | 25.4 | 0.6 | 20.8 | 50 | > 100 | 17.9 | > 100 | 38.3 | > 100 | 0.854 | > 100 | 1.7 | 15.5 | 2.19 | 21.5 | – | –
2 | CCOC(=O)c1c2cccccc2n2c(=O)cc(C)nc12 | – | > 100 | – | > 100 | – | > 100 | – | > 100 | – | > 100 | – | > 100 | – | – | – | > 100 | – | > 100 | > 100 | –
3 | O=C(O)CCSC(=O)Nc1ccccc1Cl | – | > 100 | – | > 100 | – | > 100 | – | > 100 | – | > 100 | – | > 100 | – | – | – | > 100 | – | > 100 | – | –
4 | O=C(O)CCSC(=S)Nc1cccc(F)c1 | – | 83.3 | – | > 100 | – | > 100 | – | > 100 | – | > 100 | – | > 100 | – | – | – | 53.2 | – | > 100 | – | –
5 | C=C1NC(=O)C(CC(C(=O)C(=O)Nc2c(C)cccc2C(C)(C)C)C(=O)c2ccc3ccccc3c2)C(=O)N1 (stereo unspecified) | – | > 100 | – | – | – | > 100 | – | > 100 | – | > 100 | – | > 100 | – | > 100 | – | > 100 | – | > 100 | – | –
6 | Cc1ccc(NC(=O)CC/C(CC(=O)C(C)(C)C)=N\Nc2ccc([N+](=O)[O-])cc2[N+](=O)[O-])cc1C | – | > 100 | – | > 100 | – | > 100 | – | – | – | > 100 | – | – | – | – | – | > 100 | – | > 100 | – | –
7 | O=C(NNC(=S)Nc1ccccc1)c1ccccn1 | 1.22 | > 100 | – | – | 3.95 | > 100 | 2.69 | 38.4 | > 100 | > 100 | 2.99 | > 100 | 4.29 | > 100 | 2.53 | 21.2 | 1.97 | > 100 | > 100 | 5.99
8 | COc1cc(CC(C(=O)O)C(=O)O)c(OC)cc1CC(C(=O)O)C(=O)O | – | – | – | > 100 | – | > 100 | – | > 100 | – | > 100 | – | > 100 | – | – | – | > 100 | – | > 100 | > 100 | –
9 | COc1cc2c(cc1OC)c1c(OC)c(OC)cc3c1c1c2sc(=S)n1CC3 | – | > 100 | – | > 100 | – | > 100 | – | > 100 | – | > 100 | – | > 100 | – | – | – | > 100 | – | > 100 | 34.6 | –
10 | CC(CCCC1SCC2NC(=O)NC21)C(=O)O (stereo unspecified) | – | > 100 | – | > 100 | – | > 100 | – | > 100 | – | > 100 | – | > 100 | – | > 100 | – | – | – | > 100 | > 100 | –
